In patent publication US10308681B2, “Pharmaceutical composition for the prevention and treatment of cardiovascular disease comprising the peptide having the ability to inhibit angiotensin-1 converting enzyme as an active ingredient” (University-Industry Cooperation Group of Kyung Hee …, priority 2012, dated 2019):

What was measured:
[1] = test system: mild hypertension patients; conditions: Shimizu 1994; cited from earlier work
[2] = test system: spontaneously hypertensive rats (SHR); assay: in vivo blood pressure regulation by the repeated administration (systolic pressure); design: species or system rat; conditions: oral, daily for 4 weeks, hydrolysate 100 mg/kg, YA 50 μg/kg
Experimental: To investigate in vivo blood pressure regulation effect of the functional peptide separated from the oyster enzyme hydrolysate by the repeated administration, the peptide was administered to the hypertension animal model repeatedly, followed by the investigation of blood pressure.
(§1) Particularly, the same rats as described in Example <5-2> were purchased and raised under the same condition. […] Systolic pressure was measured by the same manner as described in Example <5-2> on week 0, week 1, week 2, week 3, and week 4. […] The blood sample was centrifuged at 3,000 rpm for 10 minutes, and as a result serum was obtained and stored at −80° C. The levels of blood ACE and angiotensin-II in the stored serum were measured by using a commercial ELISA kit (USCN Life Science, China) according to the manufacturer's protocol.

[3] = test system: spontaneously hypertensive rats (SHR); assay: in vivo blood pressure regulation by a single administration (systolic pressure); design: species or system rat
Experimental: To investigate in vivo blood pressure regulation effect of the functional peptide separated from the oyster enzyme hydrolysate by a single administration, the peptide was administered to the hypertension animal model once (single administration), followed by the investigation of blood pressure.
Particularly, male spontaneously hypertensive rats (SHR; Central Lab. Animal Inc.) at 11 weeks and Wistar rats (Central Lab. Animal Inc.) were purchased, which were raised in a laboratory animal room in which the temperature was regulated at 22±3° C., the humidity was controlled at 50±5%, and the light/dark cycle was set at 12 h/12 h. Feeds and drinking water were provided freely. After a week of adaptation, the animals were divided into the experimental and the control groups and used for the experiment according to the guide line of Association for Assessment and Accreditation of Laboratory Care International approved by Institutional Animal Care and Use Committee, Kyunghee University College of Pharmacy. […] Then the animals were fixed for 20 minutes in a rat temperature control unit in which the temperature was maintained at 42° C. at the time point of 0, 3, 6, 9, 12, and 24 h, to let the tail vessel fully expanded. Then, systolic pressure was measured to investigate the antihypertensive activity.

blood ACE = assay: level of blood ACE in serum by ELISA after repeated administration; assay type: in vivo, rat; conditions: SHR serum after 4 weeks of oral administration, compared with negative control
Experimental: as §1

blood angiotensin-II = assay: level of blood angiotensin-II in serum by ELISA after repeated administration; assay type: in vivo, rat; conditions: SHR serum after 4 weeks of oral administration, compared with negative control
Experimental: as §1

valine-tyrosine [Val-Tyr]
activity of reducing blood pressure (in words) [1]: activity of reducing blood pressure

C[C@H](NC(=O)[C@@H](N)Cc1ccc(O)cc1)C(=O)O [YA, tyrosine-alanine]
blood pressure on repeated administration (in words) [2]: blood pressure did not increase for 2 weeks | blood pressure lowering effect after 6 hours from the administration ([3]; 50 μg/kg, 6 hours): 33.9% | level of blood ACE (in words) (blood ACE): significantly decreased | level of blood angiotensin-II (in words) (blood angiotensin-II): significantly decreased

C[C@H](CS)C(=O)N1CCC[C@H]1C(=O)O [Captopril, reference compound]
blood pressure lowering effect ([3]; by the negative control, Captopril 8 mg/kg, hydrolysate 100 mg/kg): 18˜19%
